“Also recorded” adds a separate entry of the source.
How the values were obtained:
CXCR4 [1] = biological target: T1, CXCR4 (Homo sapiens, UniProt P61073); test: Ca2+ mobilization in THP-1 cells in response to SDF-1α (fura-2); format: cell-based; conditions: peptide 500 μM preincubated, SDF-1α 100 ng/ml, FIG. 6
Description: FIGS. 6A through 6D depict the effect of peptide pre-treatment on the mobilization of intracellular Ca^2+ in THP-1 cells in response to SDF-1α. Cells loaded with fura-2 were preincubated with peptide 15K (FIG. 6C), 15D (FIG. 6B) and 15CW (FIG. 6D) at a final concentration of 500 μM for 3 min prior to stimulation with SDF-1α (100 ng/ml).
THP-1 cells (12×10^6/ml in RPMI 1640 containing 10% FSB) were loaded in the presence of 5 μM fura-2 AM (Molecular Probes, Eugene, Oreg.) at 22° C. for 30 min in the dark. Subsequently, cells were washed three times and resuspended (10^6 cells/ml) in the buffer containing 138 mM sodium chloride, 6 mM potassium chloride, 1 mM calcium chloride, 1 mM magnesium chloride, 10 mM HEPES, pH 7.4,5 mM glucose, and 0.1% bovine serum albumin. 1.93 ml of loaded cells was transferred into a quartz cuvette. 50 μl of a peptide stock solution (2×10^−2 M) was added to the cells, and after 3 min of incubation 20 μl of human SDF-1α (10 μg/ml, PeproTech) was added to a stirred cuvette. The measurements were performed using luminescence spectrophotometer LS50 B (Perkin-Elmer). Ca^2+ mobilization in the cells in response to SDF-1α was measured by analysis of the ratio of fluorescence emitted at 510 nm after sequential excitation at 340 and 380 nm.
The increase of intracellular Ca^2+ concentration mediated by a chemokine receptor in response to a cognate chemokine is a reliable assay for measurement of chemokine agonist activity. The human monocytic cell line THP-1 expresses a high level of CXCR4 and responds well to SDF-1α stimulation (FIG. 6A), so these cells were used to determine whether peptides 15D and 15K could block the activation of CXCR4.

CXCR4 [2] = biological target: T1, CXCR4; test: Competition with 125I-SDF-1α binding to CEMx174 cells; set-up: host or cells: CEMx174 (174xCEM); conditions: room temperature, 0.1% sodium azide, FIG. 7B, 7C
Description: FIGS. 7A through 7C depicts the inhibition of chemokine receptor ligand binding by peptide pre-treatment. FIG. 7A. Effect of pre-treatment with peptides 15K and 15D on the binding of MIP-1β to SupT1/CCR5 cells; FIG. 7B. Effect of pre-treatment with peptides 15K and 1SD on the binding of SDF-1α to CEMx174 cells; and FIG. 7C. Effect of pre-treatment with 15K and control peptide 15GIG on the binding of SDF-1α to CEmx174 cells. Binding studies were performed as described in Materials and Methods.
Binding assays were performed with HEK-CCR5 or HEK CXCR4 in triplicate by adding unlabeled competitor (anti-coreceptor binding peptide or control chemokine) and radiolabeled chemokine, 0.2 ng/ml (^125I-MIP-1β or SDF-1α, specific activity 2000 Ci/mmol, NEN Life Science Products) to a cell suspension (4×10^5 cells in 200 μl) in RPMI 1640 supplemented with 1% bovine serum albumin and 25 mM HEPES pH 8.0 (binding medium). Cells were then incubated at 22° C. for 40 min with continuous rotation. After incubation cells were transferred to the tubes containing 800 μl of 10% sucrose in PBS and harvested by centrifugation. The supernatant was aspirated and the cell-associated radioactivity was measured using a 1272 Wallac gamma counter. Binding assays were performed with the 174xCEM and Sup-T1 cells expressing CCR5 in duplicates by adding unlabeled competitor (peptide or control chemokine) and radiolabeled chemokine, 0.2 ng/ml (^125I-MIP-1β or ^125I-SDF-1α, specific activity 2000 Ci/mmol, NEN life Science Products) to 300 μl cell suspension (4×10^6 cells/ml) in RPMI 1640 supplemented with 1% bovine serum albumin, 0.1% sodium azide and 25 mM HEPES pH 8.0 (binding medium). Cells were then incubated at 22° C. for 30 min with continuous rotation. After incubation cells were transferred to the tubes containing 800 μl of 10% sucrose in PBS and harvested by centrifugation, the supematant was aspirated and the cell-associated radioactivity was measured using a 1272 Wallac gamma counter. The data were analyzed by nonlinear regression using the computer program GraphPad Prizm 3.0. […]

HIV-1IIIB = HIV-1IIIB infection of PBMC, p24 ELISA; format: cell-based; conditions: peptide 1 hr before HIV-1IIIB, p24 after 48 hr; FIG. 4
Description: Peripheral blood mononuclear cells were treated with designated concentrations of peptide for a period of 1 hr prior to addition of HIV-1IIIB. After 2 hr, cells were washed, and viral replication was determined after 48 hr by analysis of p24 levels. Results are representative of 4 independent experiments.
PBMCs were obtained from whole blood of normal donors and isolated by Ficoll-Paque Plus (Pharmacia Biotech, Piscataway, N.J.) density gradient centrifugation, and plated at a cell density of 2×10^6 cells/ml. Monocyte-derived macrophages (MDM) were generated from adherent human peripheral blood mononuclear cells by culture for 7 days with M-CSF (100 ng/ml). Cultures were maintained in RPMI-1640 medium (Life Technologies, Rockville, Md.) supplemented with 10% heat-inactivated endotoxin-free FCS (Hyclone, Logan, Utah), 10 μg/ml gentamicin, and 1 mM glutamine. Cells were treated with designated concentrations of the exemplary peptides 15K or 15D, and after 1 hr cells were infected with HIV-1IIIB (T cell tropic) or HIV-1JRFL (monocyte tropic) at an multiplicity of infection (MOI) of 0.1. After 2 hr, cells were washed, and cultured for additional 48-72 hr, followed by analysis of HIV replication as determined by quantification of accumulated p24 in the supernatant. The production of p24 was determined by conventional sandwich ELISA, using ELISA plates pre-coated with capture anti-p24 antibodies provided by the AIDS Vaccine Program (SAIC Frederick, NCI-FCRDC, Frederick, Md.). The captured p24 antigen was detected using rabbit anti-HIV-1 anti-p24 antibody, and a secondary goat anti-rabbit IgG (peroxidase-labeled) antibody. The captured p24 protein was detected using a 3,3′,5,5′-tetramethylbenzidine and hydrogen peroxide detection system (KPL Laboratories, Gaithersburg, Md.). The reaction was read spectrophotometrically at 450 nm. No cytotoxicity was detectable following treatment of PBMC with the peptides even at a concentration of 100 μg/ml.
In view of the foregoing binding inhibition studies, and considering the homology between the 15K and 15D peptides and the CXCR4 ligand SDF-1α, it was further undertaken to determine the capacity of the synthetic peptides to inhibit CXCR4 co-receptor function. In particular, experiments were carried out to assess the ability of 15K or 15D to alter the infection of PBMCs with the T cell-tropic […] strain. […] Significant inhibition of HIV-1 infection was detected with concentrations of peptides as low as 10 ng/ml.

CXCR4 [3] = biological target: T1, CXCR4; test: Binding of anti-CXCR4 antibody 12G5 to CEMx174 cells (flow cytometry); set-up: host or cells: CEMx174 (174xCEM); conditions: CEMx174 cells, preincubation 60 min 22° C.; FIG. 5
Description: FIG. 5A. Dose dependent effect of peptide 15K in comparison with SDF-1α. FIG. 5B. The comparison of the effects of 15K and 15D. FIG. 5C. The comparison of the effects of 15K and 15KS. Cells were preincubated at 22° C. with peptides at designated concentrations of SDF-1α for 60 min. Then cells were incubated with FITC-labeled anti-human CXCR4 monoclonal antibodies 12G5 for 40 min at 22° C. and washed with FACS buffer prior to flow cytometry.
CEMx174 cells were pelleted and resuspended at 10^6 cells/ml in PBS containing 1% BSA and 0.1% sodium azide (FACS buffer). Cells were then preincubated with designated concentrations of peptides or SDF-1-α (1 μg/ml) at 22° C. for 60 min. FITC-labeled anti-human CXCR4 antibody (clone 12G5, BD PharMingen, San Diego, Calif.) was added to the cells per the manufactures instructions and further incubated at 22° C. for 40 minutes. Cells were extensively washed with FACS buffer and analyzed using a FACS Calibur flowcytometer (Becton Dickinson). HEK/CCR5 cells were suspended in Dulbecco's PBS containing 1% FCS and 0.05% NaN3 (10^4 cells in 100 μl) and incubated with or without 5 μg of MIP-1β (PeproTech, Rocky Hill, N.J.), 0.1 mM peptide 15D or 15K for 45 min at 22° C. Cells were then treated with FITC-conjugated anti-human CCR5 antibody (2D7; BD PharMingen, San Diego, Calif.), and incubated for 30 min at 22° C. Cells were washed twice, and analyzed using a FACScan flow cytometer (Becton Dickinson Immunocytometry Systems, San Jose, Calif.).
To determine if peptides 15D and 15K interact directly with chemokine receptors the effect of these and control peptides on the binding of anti-chemokine receptor antibodies to CXCR4 and CCR5 was studied. The monoclonal antibody 12G5 recognizes a conformational extracellular epitope on CXCR4. This antibody blocks the infectivity of some X4 strains of HIV-1 and HIV-2 (Endres et al., Cell 87:745-756, 1996; Hoxie et al., J. Reprod. Immunol. 41:197-211(1998); McKnight et al., J. Virol. 74:1692-1696(1997), 19, 26). […] Further, the binding of 12G5 to CXCR4 receptor-expressing cells is prevented by anti-HIV compounds. […] 73:2752-2761, 1999. To determine the importance of the particular amino acid sequence of the inhibitory activity of the peptides. The effects of peptide 15K and the corresponding scrambled peptide 15KS on binding of 12G5 to CXCR4 was compared. […] Apparently there is a direct correlation between the ability of 15K to inhibit the anti-CXCR4 antibody binding and its ability to inhibit HIV-1 infectivity since the scrambled peptide 15KS with the same amino acid comparison has reduced ability to manifest both these activities.

T1 sequence (P61073 whole entry): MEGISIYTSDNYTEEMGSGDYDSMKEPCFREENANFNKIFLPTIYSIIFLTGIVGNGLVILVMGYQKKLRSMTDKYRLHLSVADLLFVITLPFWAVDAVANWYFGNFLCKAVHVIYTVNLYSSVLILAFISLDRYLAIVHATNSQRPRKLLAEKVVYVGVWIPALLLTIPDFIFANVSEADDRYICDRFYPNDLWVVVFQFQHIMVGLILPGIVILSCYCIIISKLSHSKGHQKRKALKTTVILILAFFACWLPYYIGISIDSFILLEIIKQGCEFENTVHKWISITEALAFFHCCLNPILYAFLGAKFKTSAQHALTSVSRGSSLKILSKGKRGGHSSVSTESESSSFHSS

## I R K A H C W I D R A D N N S [Peptide 15CW, reference compound]
CXCR4 [1]
  inhibition of Ca2+ mobilization in response to SDF-1α: less effective

## G I G D P V T C L K S G A I A (GIGDPVTCLKSGAIA) [Peptide 15GIG, reference compound]
CXCR4 [2]
  inhibition of SDF-1α binding to CXCR4: significantly lower competing activity

## K I N S W R A D N I H C K A R (KINSWRADNIHCKAR) [Peptide 15KS, reference compound]
HIV-1IIIB
  inhibition of T cell-tropic HIV-1 infection of PBMCs (p24): significantly less inhibition
CXCR4 [3]
  inhibition of 12G5 antibody binding to CXCR4: significantly less inhibitory activity; also recorded: a low level of inhibitory activity
